According to BigSolDB 2.1:

c1cc(-n2c3ccccc3c3ccccc32)cc(-n2c3ccccc3c3ccccc32)c1
solubility (mole fraction)
Settings	273.15 K	283.15 K	293.15 K	303.15 K	313.15 K	323.15 K
in DMSO	–	–	0.00436	0.00443	0.00472	0.00505
in NMP	–	0.062	0.0702	0.0761	0.0801	–
in THF	–	0.0507	0.0528	0.0598	0.0792	–
in acetonitrile	–	0.000243	0.000311	0.000363	0.000483	–
in dichloromethane	0.0949	0.107	0.112	0.139	–	–
in ethanol	–	0.000448	0.000561	0.000802	0.00109	–
in ethyl acetate	–	0.00426	0.00599	0.00827	0.00879	–
in isopropanol	–	4.55e-05	5.9e-05	6.95e-05	0.00011	–
in methanol	–	4.36e-05	6.14e-05	9.66e-05	0.000108	–
in n-butanol	–	0.000122	0.00017	0.000217	0.000318	–
in n-hexane	–	0.000183	0.000259	0.000342	0.000381	–
in toluene	–	0.0263	0.0316	0.0336	0.0445	–
